Earlier results, collected in patent US20050244367A1 (priority 2004, published 2005).

tested on: PLA2; settings: art-known PLA2 inhibitor classes, order of magnitude given in words

SMILES	IC50
O=C(O)CC[C@@H](CSc1ccc(Cc2ccccc2)cc1)NC(=O)CCCCCCc1ccccc1	sub μM range
CC(C)c1ccc2c(c1)CCC1C(C)(CNCCC(N)c3ccc(F)cc3)CCCC21C (stereo not shown)	μM range
CCc1c(CC(N)=O)c2cc(OCCCP(=O)(O)O)ccc2n1Cc1ccccc1	sub μM range
CCC(CCCCSc1ccc(C)cc1)c1ccc(F)cc1 (stereo not shown)	μM range
CCN(CC)CCN(Cc1ccc(-c2ccc(C(F)(F)F)cc2)cc1)C(=O)Cn1cc(Cc2ccn(C)n2)c(=O)nc1SCc1ccc(F)cc1	nM or subnM range
COC1=CCC2=C(CCC3C2CC[C@@]2(C)C3CC[C@@H]2N(C)CCCN(C)C)C1 (stereo partly shown)	sub μM range
CC(C)c1ccc2c(c1)CCC1C(C)(CNCCC(=O)c3ccc(F)cc3)CCCC21C (stereo not shown)	μM range
